Assay results as given in patent publication US8598114B2, “Antimicrobial compounds” (priority 2007, dated 2013).
Several values for one entry are separate records, joined by “and”; a condition that tells them apart may be missing. Equal entries are not always repeated.

What was measured:
[1] = system: Staphylococcus aureus; experiment: MIC, CLSI microbroth dilution (aerobic bacteria); format: cell-based; design: unit not given here
From the text: (§1) Cation-adjusted Mueller-Hinton broth (Oxoid Ltd., Basingstoke, UK and Trek Diagnostic Systems Ltd., East Grinstead, UK) (supplemented with 5% laked horse blood for Streptococcus spp., Corynebacterium jeikeium and Listeria monocytogenes) was used for aerobic bacteria, with an initial inoculum of approximately 10^5 colony-forming units (CFU)/mL.
To evaluate whether freezing affected the activity of the peptides some MIC determinations were repeated using plates containing freshly-prepared Mueller-Hinton broth.

[2] = system: Streptococcus pneumoniae; experiment: MIC, CLSI microbroth dilution (aerobic bacteria); format: cell-based; design: unit not given beside the values
From the text: as §1

[3] = system: Listeria monocytogenes; experiment: MIC, CLSI microbroth dilution (aerobic bacteria); format: cell-based; design: unit not given beside the values; conditions: Listeria monocytogenes - antibiotic-susceptible clinical isolate
From the text: as §1

[4] = system: Morganella morganii; experiment: MIC, CLSI microbroth dilution (aerobic bacteria); format: cell-based; design: unit not given beside the values; conditions: Morganella morganii - multi-drug resistant clinical isolate
From the text: as §1

[5] = system: Staphylococcus saprophyticus; experiment: MIC, CLSI microbroth dilution (aerobic bacteria); format: cell-based; design: unit not given beside the values; conditions: Staphylococcus saprophyticus - antibiotic susceptible clinical isolate
From the text: as §1

[6] = system: Streptococcus sanguis; experiment: MIC, CLSI microbroth dilution (aerobic bacteria); format: cell-based; design: unit not given beside the values
From the text: as §1

[7] = system: Group C Streptococcus; experiment: MIC, CLSI microbroth dilution (aerobic bacteria); format: cell-based; design: unit not given beside the values
From the text: as §1

[8] = system: Streptococcus pyogenes; experiment: MIC, CLSI microbroth dilution (aerobic bacteria); format: cell-based; design: unit not given beside the values
From the text: as §1

[9] = system: Streptococcus oralis; experiment: MIC, CLSI microbroth dilution (aerobic bacteria); format: cell-based; design: unit not given beside the values
From the text: as §1

[10] = system: Stenotrophomonas maltophilia; experiment: MIC, CLSI microbroth dilution (aerobic bacteria); format: cell-based; design: unit not given beside the values; conditions: Stenotrophomonas maltophilia - antibiotic-susceptible clinical isolate
From the text: as §1

[11] = system: Salmonella sp; experiment: MIC, CLSI microbroth dilution (aerobic bacteria); format: cell-based; design: unit not given beside the values
From the text: as §1

[12] = system: Streptococcus constellatus; experiment: MIC, CLSI microbroth dilution (aerobic bacteria); format: cell-based; design: unit not given beside the values
From the text: as §1

[13] = system: Shigella sp; experiment: MIC, CLSI microbroth dilution (aerobic bacteria); format: cell-based; design: unit not given beside the values; conditions: Shigella sp - antibiotic-susceptible clinical isolate
From the text: as §1

[14] = system: Moraxella catarrhalis; experiment: MIC, CLSI microbroth dilution (aerobic bacteria); format: cell-based; design: unit not given beside the values
From the text: as §1

[15] = system: Enterobacter sp; experiment: MIC, CLSI microbroth dilution (aerobic bacteria); format: cell-based; design: unit not given beside the values
From the text: as §1

[16] = system: Streptococcus agalactiae; experiment: MIC, CLSI microbroth dilution (aerobic bacteria); format: cell-based; design: unit not given beside the values
From the text: as §1

[17] = system: Klebsiella aerogenes; experiment: MIC, CLSI microbroth dilution (aerobic bacteria); format: cell-based; design: unit not given beside the values
From the text: as §1

[18] = system: Streptococcus mitis; experiment: MIC, CLSI microbroth dilution (aerobic bacteria); format: cell-based; design: unit not given beside the values
From the text: as §1

[19] = system: Staphylococcus epidermidis; experiment: MIC, CLSI microbroth dilution (aerobic bacteria); format: cell-based; design: unit not given beside the values
From the text: as §1

[20] = system: Streptococcus bovis; experiment: MIC, CLSI microbroth dilution (aerobic bacteria); format: cell-based; design: unit not given beside the values
From the text: as §1

[21] = system: Group G Streptococcus; experiment: MIC, CLSI microbroth dilution (aerobic bacteria); format: cell-based; design: unit not given beside the values
From the text: as §1

[22] = system: Microsporum canis; experiment: MIC, CLSI microbroth dilution (filamentous fungi); format: cell-based; conditions: Microsporum canis - G.R. Micro collection
Method: M38-A Vol. 22 No. 16 Reference Method for Broth Dilution Antifungal Susceptibility Testing of Filamentous Fungi; Approved Standard.
Yeast and filamentous fungal MIC were performed in MOPS buffered RPMI 1640 medium (MOPS buffer obtained from Sigma Aldrich Ltd., RPMI 1640 obtained from Invitrogen Ltd, Paisley, Scotland). The yeast inocula were in the range 7.5×10^2-4×10^3 CFU/mL and the filamentous fungi approximately 8×10^3-1×10^5CFU/mL

[23] = system: trypsin; experiment: in vitro; format: in vitro ADME; conditions: pH 8.6
Method: Measurements and Calculation of Peptide Half-Life
Each peptide was dissolved in a 0.1 M NH4HCO3 buffer (pH 6.5) to yield a final peptide concentration of 1 mg/ml. A trypsin solution was prepared by dissolving 1 mg of trypsin in 50 ml 0.1 M NH4HCO3 buffer (pH 8.2). For the stability determination, 250 μl freshly made trypsin solution and 250 μl peptide solution were incubated in 2 ml of 0.1 M NH4HCO3 buffer (pH 8.6) at 37° C. on a rocking table. Aliquots of 0.5 ml were sampled at different time intervals, diluted with 0.5 ml water:acetonitrile (60:40 v/v) containing 1% TFA and analysed by RP-HPLC as described above. Samples without trypsin addition taken at 0 h and after 20 h at 37° C. were used as negative controls. Integration of the peak area at 254 nm for samples taken during the first 5 hours of the assay was used to generate the τ1/2.

[24] = system: Clostridium perfringens; format: cell-based; conditions: Clostridium perfringens - antibiotic-susceptible clinical isolate

N=C(N)NCCCC(N)C(=O)NC(Cc1ccc(-c2ccc3ccccc3c2)cc1)C(=O)NC(CCCNC(=N)N)C(=O)NCCc1ccccc1 (stereo not shown) [Compound 1] was tested, and the MIC ([1]; EMRSA1 Staphylococcus aureus (MRSA) - SSCmec type 3) was 8, the MIC ([1]; EMRSA3 Staphylococcus aureus (MRSA) - SSCmec type 1) was 4 and the MIC ([1]; EMRSA15 Staphylococcus aureus (MRSA) - SSCmec type 4) was 4. The MIC ([1]; EMRSA16 Staphylococcus aureus (MRSA) - SSCmec type 2) was 4, the MIC ([1]; GP01 Staphylococcus aureus ATCC 29213 control strain, repeat results (Table 2), Fresh MHB) was 4 and the MIC ([1]; GP01 Staphylococcus aureus ATCC 29213 control strain, repeat results (Table 2), Frozen MHB) was 8 and 4. For the same molecule, the MIC ([1]; HT2001254 Staphylococcus aureus (MRSA) - PVL positive) was 4, the MIC ([1]; MU50 Staphylococcus aureus (MRSA) - VISA type strain) was 4 and the MIC ([1]; Staphylococcus aureus - methicillin-resistant clinical isolate) was 4. The MIC ([1]; Staphylococcus aureus - multi-drug-resistant clinical isolate) was 8, the MIC ([1]; Staphylococcus aureus - teicoplanin-intermediate clinical isolate) was 4 and the MIC ([1]; Staphylococcus aureus ATCC 25923 - antibiotic-susceptible control) was 4. For the same molecule, the MIC ([1]; Staphylococcus aureus ATCC 29213 - antibiotic-susceptible control (Table 1)) was 4, the MIC ([1]; Staphylococcus aureus ATCC 43300 - methicillin-resistant control strain) was 4 and the MIC ([2]; Streptococcus pneumoniae - ATCC 49619 antibiotic-susceptible control) was 32. It also gave an MIC ([2]; Streptococcus pneumoniae - multi-drug resistant clinical isolate) of 64, an MIC ([2]; Streptococcus pneumoniae - penicillin-resistant clinical isolate) of 32 and an MIC ([2]; Streptococcus pneumoniae - penicillin-susceptible clinical isolate) of 64. The MIC ([2]; Streptococcus pneumoniae -penicillin-intermediate clinical isolate) was 32, the MIC [3] was 32 and the MIC [4] was “≧128”. For the same molecule, the MIC [5] was 1, the MIC ([6]; Streptococcus sanguis - antibiotic-susceptible clinical isolate) was 64 and the MIC ([6]; Streptococcus sanguis - macrolide-resistant clinical isolate) was 32. For the same molecule, the MIC ([7]; Group C Streptococcus - antibiotic-susceptible clinical isolate) was 32, the MIC ([7]; Group C Streptococcus - macrolide-resistant clinical isolate) was 64 and the MIC ([8]; Streptococcus pyogenes - Macrolide (M-type) resistance clinical isolate) was 32. For the same molecule, the MIC ([8]; Streptococcus pyogenes - Macrolide (MLS) resistant clinical isolate) was 32, the MIC ([9]; Streptococcus oralis - antibiotic-susceptible clinical isolate) was 64 and the MIC ([9]; Streptococcus oralis - macrolide-resistant clinical isolate) was 32. It also gave an MIC [10] of 64, an MIC ([11]; Salmonella sp - antibiotic-susceptible clinical isolate) of 16 and an MIC ([11]; Salmonella sp - multi-drug resistant clinical isolate) of 16. For the same molecule, the MIC ([12]; Streptococcus constellatus - antibiotic-susceptible clinical isolate) was 64, the MIC ([12]; Streptococcus constellatus - macrolide-resistant clinical isolate) was 64 and the MIC [13] was 32. The MIC ([14]; Moraxella catarrhalis - reduced fluoroquinolone susceptibility clinical) was 8, the MIC ([14]; Moraxella catarrhalis - β-lactamase positive clinical isolate) was 4 and the MIC ([15]; Enterobacter sp - antibiotic-susceptible clinical isolate) was 32. The MIC ([15]; Enterobacter sp - multi-drug resistant clinical isolate) was 64, the MIC ([16]; Streptococcus agalactiae - antibiotic-susceptible clinical isolate) was 16 and the MIC ([16]; Streptococcus agalactiae - macrolide-resistant clinical isolate) was 32. The MIC ([17]; Klebsiella aerogenes - multi-drug resistant clinical isolate) was 64, the MIC ([17]; Klebsiella aerogenes NCTC11228 - antibiotic-susceptible type strain) was 32 and the MIC ([18]; Streptococcus mitis - antibiotic-susceptible clinical isolate) was 64. For the same molecule, the MIC ([18]; Streptococcus mitis - macrolide-resistant clinical isolate) was “≧128”, the MIC ([19]; Staphylococcus epidermidis antibiotic susceptible clinical isolate) was 16 and the MIC ([19]; Staphylococcus epidermidis methicillin-resistant clinical isolate) was 2. For the same molecule, the MIC ([20]; Streptococcus bovis - antibiotic-susceptible clinical isolate) was 64, the MIC ([20]; Streptococcus bovis - macrolide-resistant clinical isolate) was 8 and the MIC ([21]; Group G Streptococcus - antibiotic-susceptible clinical isolate) was 32. The MIC ([21]; Group G Streptococcus - macrolide-resistant clinical isolate) was 32, the MIC [22] was 8 and the half-life at 0.1 mg/ml [23] was greater than 24 h. The MIC [24] was “≧128”.
